system: HCT116; experiment: In vitro cytotoxicity, cell colony formation assay; format: cell-based; conditions: HCT116; 72 h with drug, colonies counted after 7 days; concentration producing 50% inhibition of colony formation; read-out: IN VITRO ID 50
Protocol: In Vitro cytotoxicity measured by the cell colony formation assay
Four hundred cells (HCT116) were plated in 60 mm Petri dishes containing 2.7 mL of medium (modified McCoy's 5a medium containing 10% fetal bovine serum and 100 units/mL penicillin and […] streptomycin). The cells were incubated in a CO2 incubator at 37 °C for 5 h for attachment to the bottom of Petri dishes. The compounds identified in Example 2 were made up fresh in medium at ten times the final concentration, and then 0.3 mL of this stock solution was added to the 2.7 mL of medium in the dish. The cells were then incubated with drugs for 72 h at 37 ° C. At the end of incubation the drug-containing media were decanted, the dishes were rinsed with 4 mL of Hank's Balance Salt Solution (HBSS), 5 mL of fresh medium was added, and the dishes were returned to the incubator for colony formation. The cell colonies were counted using a colony counter after incubation for 7 days.

**Q.** For CCOC(=O)OC1C(=O)C2(C)C(O)CC3OCC3(OC(C)=O)C2C(OC(=O)c2ccccc2)C2(O)CC(OC(=O)C(O)C(C=C(C)C)NC(=O)OC(C)(C)C)C(C)=C1C2(C)C (stereo not drawn) [Compound 1788], which IC50 is on record?
**A.** Its IC50 is under 1 nM.

**Q.** With CCOC(=O)OC1C(=O)C2(C)C(O)CC3OCC3(OC(C)=O)C2C(OC(=O)c2ccccc2)C2(O)CC(OC(=O)C(O)C(NC(=O)OC(C)(C)C)c3ccccn3)C(C)=C1C2(C)C (stereo not drawn) [Compound 1799] as the molecule, how does the IC50 read?
**A.** Its IC50 is under 1 nM.

**Q.** Which IC50 does the source give for CCOC(=O)OC1C(=O)C2(C)C(O)CC3OCC3(OC(C)=O)C2C(OC(=O)c2ccccc2)C2(O)CC(OC(=O)C(O)C(NC(=O)OC(C)(C)C)c3cccnc3)C(C)=C1C2(C)C (stereo not drawn) [Compound 1808] here?
**A.** The IC50 was under 10 nM.

**Q.** For CCOC(=O)OC1C(=O)C2(C)C(O)CC3OCC3(OC(C)=O)C2C(OC(=O)c2ccccc2)C2(O)CC(OC(=O)C(O)C(NC(=O)OC(C)(C)C)c3ccncc3)C(C)=C1C2(C)C (stereo not drawn) [Compound 1811], which IC50 is on record?
**A.** Its IC50 is under 1 nM.

**Q.** CCOC(=O)OC1C(=O)C2(C)C(O)CC3OCC3(OC(C)=O)C2C(OC(=O)c2ccccc2)C2(O)CC(OC(=O)C(O)C(NC(=O)OC(C)(C)C)c3ccco3)C(C)=C1C2(C)C (stereo not drawn) [Compound 1822] was tested. Which IC50 did it give?
**A.** The IC50 was under 1 nM.

**Q.** CCOC(=O)OC1C(=O)C2(C)C(O)CC3OCC3(OC(C)=O)C2C(OC(=O)c2ccccc2)C2(O)CC(OC(=O)C(O)C(NC(=O)OC(C)(C)C)c3ccsc3)C(C)=C1C2(C)C (stereo not drawn) [Compound 1841] was tested. Which IC50 did it give?
**A.** Its IC50 is under 1 nM.

**Q.** With CCOC(=O)OC1C(=O)C2(C)C(O)CC3OCC3(OC(C)=O)C2C(OC(=O)c2ccccc2)C2(O)CC(OC(=O)C(O)C(NC(=O)OC(C)(C)C)C3CCC3)C(C)=C1C2(C)C (stereo not drawn) [Compound 1855] as the molecule, how does the IC50 read?
**A.** The IC50 was under 10 nM.

**Q.** How did the IC50 turn out when CCOC(=O)OC1C(=O)C2(C)C(O)CC3OCC3(OC(C)=O)C2C(OC(=O)c2ccccc2)C2(O)CC(OC(=O)C(O)C(NC(=O)OC(C)(C)C)c3ccc([N+](=O)[O-])cc3)C(C)=C1C2(C)C (stereo not drawn) [Compound 1866] was run?
**A.** The IC50 was under 1 nM.

**Q.** For COC(=O)OC1C(=O)C2(C)C(O)CC3OCC3(OC(C)=O)C2C(OC(=O)c2ccccc2)C2(O)CC(OC(=O)C(O)C(C=C(C)C)NC(=O)OC(C)(C)C)C(C)=C1C2(C)C (stereo not drawn) [Compound 1999], which IC50 is on record?
**A.** The IC50 was under 1 nM.

**Q.** How did the IC50 turn out when COC(=O)OC1C(=O)C2(C)C(O)CC3OCC3(OC(C)=O)C2C(OC(=O)c2ccccc2)C2(O)CC(OC(=O)C(O)C(NC(=O)OC(C)(C)C)c3ccccn3)C(C)=C1C2(C)C (stereo not drawn) [Compound 2002] was run?
**A.** Its IC50 is under 1 nM.

**Q.** With COC(=O)OC1C(=O)C2(C)C(O)CC3OCC3(OC(C)=O)C2C(OC(=O)c2ccccc2)C2(O)CC(OC(=O)C(O)C(NC(=O)OC(C)(C)C)c3cccnc3)C(C)=C1C2(C)C (stereo not drawn) [Compound 2011] as the molecule, how does the IC50 read?
**A.** The IC50 was under 10 nM.

**Q.** Which IC50 does the source give for COC(=O)OC1C(=O)C2(C)C(O)CC3OCC3(OC(C)=O)C2C(OC(=O)c2ccccc2)C2(O)CC(OC(=O)C(O)C(NC(=O)OC(C)(C)C)c3ccncc3)C(C)=C1C2(C)C (stereo not drawn) [Compound 2020] here?
**A.** Its IC50 is under 1 nM.

**Q.** Which IC50 does the source give for COC(=O)OC1C(=O)C2(C)C(O)CC3OCC3(OC(C)=O)C2C(OC(=O)c2ccccc2)C2(O)CC(OC(=O)C(O)C(NC(=O)OC(C)(C)C)c3cccs3)C(C)=C1C2(C)C (stereo not drawn) [Compound 2044] here?
**A.** The IC50 was under 1 nM.

**Q.** How did the IC50 turn out when COC(=O)OC1C(=O)C2(C)C(O)CC3OCC3(OC(C)=O)C2C(OC(=O)c2ccccc2)C2(O)CC(OC(=O)C(O)C(NC(=O)OC(C)(C)C)c3ccsc3)C(C)=C1C2(C)C (stereo not drawn) [Compound 2050] was run?
**A.** Its IC50 is under 1 nM.

**Q.** How did the IC50 turn out when COC(=O)OC1C(=O)C2(C)C(O)CC3OCC3(OC(C)=O)C2C(OC(=O)c2ccccc2)C2(O)CC(OC(=O)C(O)C(NC(=O)OC(C)(C)C)C(C)C)C(C)=C1C2(C)C (stereo not drawn) [Compound 2062] was run?
**A.** Its IC50 is under 10 nM.

**Q.** COC(=O)OC1C(=O)C2(C)C(O)CC3OCC3(OC(C)=O)C2C(OC(=O)c2ccccc2)C2(O)CC(OC(=O)C(O)C(NC(=O)OC(C)(C)C)C3CCC3)C(C)=C1C2(C)C (stereo not drawn) [Compound 2077] was tested. Which IC50 did it give?
**A.** Its IC50 is under 10 nM.

**Q.** Which IC50 does the source give for COC(=O)OC1C(=O)C2(C)C(O)CC3OCC3(OC(C)=O)C2C(OC(=O)c2ccccc2)C2(O)CC(OC(=O)C(O)C(NC(=O)OC(C)(C)C)c3ccc([N+](=O)[O-])cc3)C(C)=C1C2(C)C (stereo not drawn) [Compound 2088] here?
**A.** Its IC50 is under 1 nM.

**Q.** Which IC50 does the source give for COC(=O)OC1C(=O)C2(C)C(O)CC3OCC3(OC(C)=O)C2C(OC(=O)c2ccccc2)C2(O)CC(OC(=O)C(O)C(NC(=O)OC(C)(C)C)c3ccccc3)C(C)=C1C2(C)C (stereo not drawn) [Compound 2092] here?
**A.** Its IC50 is under 1 nM.

**Q.** Which IC50 does the source give for CCOC(=O)OC1C(=O)C2(C)C(O)CC3OCC3(OC(C)=O)C2C(OC(=O)c2ccccc2)C2(O)CC(OC(=O)C(O)C(NC(=O)c3ccccc3)c3cccs3)C(C)=C1C2(C)C (stereo not drawn) [Compound 2972] here?
**A.** Its IC50 is under 10 nM.

**Q.** With CCOC(=O)OC1C(=O)C2(C)C(O)CC3OCC3(OC(C)=O)C2C(OC(=O)c2ccccc2)C2(O)CC(OC(=O)C(O)C(NC(=O)OC(C)C)c3cccs3)C(C)=C1C2(C)C (stereo not drawn) [Compound 2999] as the molecule, how does the IC50 read?
**A.** The IC50 was under 1 nM.

**Q.** Which IC50 does the source give for CCOC(=O)OC1C(=O)C2(C)C(O)CC3OCC3(OC(C)=O)C2C(OC(=O)c2ccccc2)C2(O)CC(OC(=O)C(O)C(NC(=O)OCC(C)C)c3cccs3)C(C)=C1C2(C)C (stereo not drawn) [Compound 3003] here?
**A.** Its IC50 is under 10 nM.

**Q.** With CCOC(=O)OC1C(=O)C2(C)C(O)CC3OCC3(OC(C)=O)C2C(OC(=O)c2ccccc2)C2(O)CC(OC(=O)C(O)C(NC(=O)c3ccco3)c3cccs3)C(C)=C1C2(C)C (stereo not drawn) [Compound 3011] as the molecule, how does the IC50 read?
**A.** The IC50 was under 1 nM.

**Q.** With CCOC(=O)OC1C(=O)C2(C)C(O)CC3OCC3(OC(C)=O)C2C(OC(=O)c2ccccc2)C2(O)CC(OC(=O)C(O)C(NC(=O)c3cccs3)c3cccs3)C(C)=C1C2(C)C (stereo not drawn) [Compound 3020] as the molecule, how does the IC50 read?
**A.** The IC50 was under 1 nM.

**Q.** With CCCC(=O)NC(c1cccs1)C(O)C(=O)OC1CC2(O)C(OC(=O)c3ccccc3)C3C4(OC(C)=O)COC4CC(O)C3(C)C(=O)C(OC(=O)OCC)C(=C1C)C2(C)C (stereo not drawn) [Compound 3155] as the molecule, how does the IC50 read?
**A.** The IC50 was under 1 nM.

**Q.** Which IC50 does the source give for CCOC(=O)OC1C(=O)C2(C)C(O)CC3OCC3(OC(C)=O)C2C(OC(=O)c2ccccc2)C2(O)CC(OC(=O)C(O)C(NC(=O)OCC(C)C)c3ccco3)C(C)=C1C2(C)C (stereo not drawn) [Compound 3181] here?
**A.** The IC50 was under 1 nM.

**Q.** For CCOC(=O)OC1C(=O)C2(C)C(O)CC3OCC3(OC(C)=O)C2C(OC(=O)c2ccccc2)C2(O)CC(OC(=O)C(O)C(NC(=O)c3cccnc3)c3cccs3)C(C)=C1C2(C)C (stereo not drawn) [Compound 3300], which IC50 is on record?
**A.** Its IC50 is under 10 nM.

**Q.** Which IC50 does the source give for CCOC(=O)OC1C(=O)C2(C)C(O)CC3OCC3(OC(C)=O)C2C(OC(=O)c2ccccc2)C2(O)CC(OC(=O)C(O)C(NC(=O)c3ccccn3)c3cccs3)C(C)=C1C2(C)C (stereo not drawn) [Compound 3433] here?
**A.** Its IC50 is 22.3 nM.

**Q.** CCCC(=O)NC(c1ccco1)C(O)C(=O)OC1CC2(O)C(OC(=O)c3ccccc3)C3C4(OC(C)=O)COC4CC(O)C3(C)C(=O)C(OC(=O)OCC)C(=C1C)C2(C)C (stereo not drawn) [Compound 3929] was tested. Which IC50 did it give?
**A.** Its IC50 is under 1 nM.

**Q.** Which IC50 does the source give for CCOC(=O)OC1C(=O)C2(C)C(O)CC3OCC3(OC(C)=O)C2C(OC(=O)c2ccccc2)C2(O)CC(OC(=O)C(O)C(NC(=O)OC(C)C)c3ccco3)C(C)=C1C2(C)C (stereo not drawn) [Compound 3963] here?
**A.** The IC50 was under 1 nM.

**Q.** Which IC50 does the source give for CC=CC(=O)NC(c1ccco1)C(O)C(=O)OC1CC2(O)C(OC(=O)c3ccccc3)C3C4(OC(C)=O)COC4CC(O)C3(C)C(=O)C(OC(=O)OCC)C(=C1C)C2(C)C (stereo not drawn) [Compound 4000] here?
**A.** Its IC50 is under 1 nM.

**Q.** Which IC50 does the source give for CCOC(=O)OC1C(=O)C2(C)C(O)CC3OCC3(OC(C)=O)C2C(OC(=O)c2ccccc2)C2(O)CC(OC(=O)C(O)C(NC(=O)c3cccs3)c3ccco3)C(C)=C1C2(C)C (stereo not drawn) [Compound 4088] here?
**A.** The IC50 was under 10 nM.

**Q.** For CCOC(=O)OC1C(=O)C2(C)C(O)CC3OCC3(OC(C)=O)C2C(OC(=O)c2ccccc2)C2(O)CC(OC(=O)C(O)C(NC(=O)c3ccccc3)c3ccco3)C(C)=C1C2(C)C (stereo not drawn) [Compound 4090], which IC50 is on record?
**A.** Its IC50 is under 1 nM.

**Q.** With CCOC(=O)OC1C(=O)C2(C)C(O)CC3OCC3(OC(C)=O)C2C(OC(=O)c2ccccc2)C2(O)CC(OC(=O)C(O)C(C=C(C)C)NC(=O)OCC(C)C)C(C)=C1C2(C)C (stereo not drawn) [Compound 5155] as the molecule, how does the IC50 read?
**A.** Its IC50 is under 10 nM.
